{"source": "patent US20230390386A1", "about": "“REPLICATION-DEFECTIVE VACCINES AND USES THEREOF” (priority 2020, published 2023)", "key": {"HSV-2 GFP": {"tested_on": "HSV-2 GFP", "test": "HSV-2 GFP fluorescence imaging and growth curve (plaque assay) in ARPE-19 cells after CM treatment", "format": "cell-based, human simplex virus-2", "conditions": "for HSV-2-GFP infection and growth: ARPE-19 cells", "procedure": "Human Simplex Virus (HSV) treatment with CM: The ARPE-19 (ATCC CRL-2302) cells were grown in 12 well plate in DMEM with 10% FBS and 1% P/S. […] were treated with different concentration of centanamycin (100 μM, 10 μM, 1μM, 0.1 μM, and 0.01 μM) for two hours at room temperature. The CM treated HSV were washed 3 times with cDMEM after treatment to remove CM and added to the ARPE-19 cells in triplicate at an MOI of 0.2. The HSV viruses were collected at 6, 12, 18, 24, 30, 36, and 42 hours of post-infection. The virus titer was determined by plaque assays using ARPE-19 cells.\nIn this study, the HSV-2 GFP was treated with the different concentrations of CM ranging from 100 μM to 0.01 μM (10-fold serial dilution at each concentration) and determined the growth curve using plaque assay (FIG. 2B). […] A 10 μM CM treatment of HSV-2-GFP leads to the virus attenuation and the virus was not able to spread to adjacent cells (FIG. 2A). […] The virus treatment with 1 μM CM lead to viral infection in host cells and extremely slowly spread to neighbor cells (FIG. 2A)."}, "HCMV gDNA": {"tested_on": "HCMV gDNA", "test": "Analysis of CM-treated viral gDNA (agarose gel, EcoR1 digestion, 50° C. incubation)", "set-up": "species or system human cytomegalovirus", "procedure": "Analysis of CM and viral gDNA: To see any effect of CM on the HCMV gDNA, the gDNA was analyzed by agarose gel electrophoresis, restriction digestion, and thermal incubation at 50° C. The HCMV was grown in ARPE-19 cells and virus particles were purified through sucrose gradient using ultracentrifugation. HCMV gDNA was extracted and concentration was determined by OD at 260/280. Approximately, 10 μg of HCMV gDNA was incubated with 10 μM CM at RT for 1 hour and 10 μg of HCMV gDNA was treated with vehicle control without CM. The treated gDNA was analyzed by the agarose gel electrophoresis to see any effect of CM on the HCMV gDNA. In a separate experiment, the […] treated HCMV gDNA was incubated at 50° C. for 30 minutes to check the alkylation of DNA is thermolabile or not. Untreated HCMV gDNA was also treated similarly. In another, 3 μg of CM treated and untreated HCMV gDNA was digested with EcoR1 overnight at 37° C. and analyzed by 0.6% agarose gel electrophoresis.\nTo understand the mechanism behind CM mediated attenuation of the virus, CM-treated viral gDNA was analyzed using agarose gel electrophoresis, restriction digestion, and heat-labile fragmentation assays. The AD169 viral gDNA was treated with 1 μM CM for two hours at RT and then separated with a 0.6% agarose gel. Untreated AD169 viral gDNA was used as a control. […] To further understand the effect of CM on the viruses, viral gDNA was isolated and treated with CM for two hours at RT followed by digestion with the restriction enzymes EcoR1. […] However, the CM treated viruses were alkylated efficiently as compared to the control which was observed by the DNA fragmentation during incubation at 50° C. while control untreated viruses have intact DNA (FIG. 3C)."}, "VZV-Luc": {"tested_on": "VZV-Luc", "test": "Cell-free VZV-Luc growth curve in ARPE-19 cells after CM treatment", "format": "cell-based, varicella zoster virus", "conditions": "for VZV-Luc growth and spread: two hours at RT, ARPE-19 cells", "procedure": "Cell-free Varicella-zoster virus (VZV) treatment with the CM: VZV is a cell-associated virus. The efficacy of CM on VZV was checked using growth curve analysis. VZV-GFP-Luc was used to check the effect of CM on the virus. The ARPE-19 cells were seeded in 6-well plate and maintained at 37° C. and 5% CO2. The cell-free virus was treated with different concentration of CM (centanamycin (100 μM, 10 μM, and 0.1 μM) for two hours at RT and washed with three times with cDMEM prior to adding to the cells. The virus load in the infected cells was determined by adding luciferin substrate and measuring relative luciferase units every 24 hours of post-infection. The control included the cells infected with the virus without CM treatment. Viability of infected cells was quantified using the Cell Counting Kit-8 (Sigma# 96992) according to the manufacturers protocol.\nSubsequent studies then evaluated the effect of CM treatment on the replication and growth of human alphaherpesvirus-3, also known as varicella zoster virus (VZV), under in vitro conditions in human epithelial ARPE-19 cells. The VZV is a highly cell associated virus and it is transmitted by cell-cell spread. The cell-free, luciferase-expressing VZV-Luc was treated with different concentration of CM (100 μM, 10 μM, 1.0 μM, and 0.1 μM) for two hours at RT. After two hours, the virus was added to the ARPE-19 cells. […] As compared to the CMV which can be attenuated with 1 μM CM, VZV is attenuated with 10 μM CM and this is because VZV is a cell associated virus and CM needs to cross the cell membrane to bind the virus and completely attenuates the VZV."}, "AD169-GFP": {"tested_on": "AD169-GFP", "test": "AD169-GFP fluorescence microscopy in ARPE-19 cells after CM treatment of virus", "format": "cell-based, human cytomegalovirus", "procedure": "Fluorescence microscopy: The AD169-GFP viruses were incubated with 100 μM, 10 μM, 1.0 μM, and 0.1 μM of centanamycin as described above. After treatment, the AD169-GFP viruses were washed 3 times with the cDMEM and added to the ARPE-19 cells at an MOI of 0.05. The virus growth was analyzed every day by fluorescence microscopy. In a control experiment, the viruses were only treated with the PET vehicle.\nTo understand the pathology of CM treated virus, a GFP-expressing human cytomegalovirus, AD169-GFP, was used with microscopic imaging to visually assess the ability of treated viruses to infect cell."}}, "data": [{"smiles": "COc1cc2cc(C(=O)Nc3cc(N)c4ccccc4c3CCCl)[nH]c2c(OC)c1OC", "note": "[CM, centanamycin]", "values": [{"measurement": "CM concentration needed to produce replication-defective HSV-2", "setting": "HSV-2 GFP", "result": 1, "unit": "µM"}, {"measurement": "HSV-2-GFP infection and growth", "setting": "HSV-2 GFP; virus treated with 1.0 μM CM", "result": "slower growth as compared to untreated"}, {"measurement": "HSV-2-GFP infection and growth", "setting": "HSV-2 GFP; virus treated with 10 μM CM", "result": "able to infect the cells but not replicate"}, {"measurement": "HSV-2-GFP infection and growth", "setting": "HSV-2 GFP; virus treated with 100 μM CM", "result": "completely inhibits the virus infection"}, {"measurement": "Viral gDNA bands on 0.6% agarose gel, treated versus untreated", "setting": "HCMV gDNA; AD169 viral gDNA, 1 μM CM, two hours at RT", "result": "no big differences in the viral gDNA bands, mobility, and gel pattern"}, {"measurement": "EcoR1 digestion pattern of CM treated viral gDNA", "setting": "HCMV gDNA; CM two hours at RT, then EcoR1", "result": "no major missing bands"}, {"measurement": "Thermolabile alkylation: state of CM treated viral DNA on incubation at 50° C.", "setting": "HCMV gDNA; incubation at 50° C.", "result": "experienced fragmentation at 50 °C"}, {"measurement": "CM concentration that attenuates VZV", "setting": "VZV-Luc", "result": 10, "unit": "µM"}, {"measurement": "VZV-Luc growth and spread", "setting": "VZV-Luc; cell-free virus treated with 0.1 μM CM", "result": "infect as well as spread to the adjacent cells but with reduced growth"}, {"measurement": "VZV-Luc growth and spread", "setting": "VZV-Luc; cell-free virus treated with 1.0 μM CM", "result": "infect as well as spread to the adjacent cells but with reduced growth"}, {"measurement": "VZV-Luc growth and spread", "setting": "VZV-Luc; cell-free virus treated with 10.0 μM CM", "result": "allowed the virus to infect the cells but not to spread to the adjacent cells"}, {"measurement": "VZV-Luc growth and spread", "setting": "VZV-Luc; cell-free virus treated with 100 μM CM", "result": "completely inhibit the growth as well as replication"}, {"measurement": "AD169-GFP infection and replication (GFP fluorescence)", "setting": "AD169-GFP; virus treated with 1 μM CM", "result": "detected in the infected cells but did not replicate"}, {"measurement": "AD169-GFP infection and replication (GFP fluorescence)", "setting": "AD169-GFP; virus treated with 10 μM CM", "result": "not able to infect the cells"}, {"measurement": "AD169-GFP infection and replication (GFP fluorescence)", "setting": "AD169-GFP; virus treated with 100 μM CM", "result": "not detected in the infected cells"}]}]}
